Target: LPA2 receptor (Homo sapiens, UniProt Q9HBW0)
Assay: LPA2R-calciumflux assay
Type: cell-based
Settings: U2OS cells recombinant expressing LPA2R; LPA-induced intracellular calcium signal (FLIPR Tetra); 10 concentrations from 30 uM to 1 nM, 1% DMSO
Excerpt: Description of the LPA2R Assay
Cell Cultivation/Propagation
LPA2R-calciumflux Assay Protocol
The assay detects intra cellular calcium which is generated by cells upon activation of the LPA2 receptor by its ligand LPA. This transient calcium mobilisation can be monitored using a commercial calcium detection kit (e.g. from Molecular Devices). The main component of such a kit is a dye, which becomes fluorescent when calcium is present—a transient fluorescence signal after laddition of a ligand to a test well are the result. Readers like the FLIPR (from Molecular Devices) can be used to monitor such transient “Ca-flux” signals.
The signals are calculated according to peak maximum minus base line. Compounds which are antogonists of LPA lead to a decreased mobilisation of intracellular calcium and thus to a lower signal. The assay is performed in microplates (384 wells per plate).
The assay itself is run according to the following procedure: • 50 uL seed cells (10000 cells/well in DMEM buffer) • Incubate 24 h at 37° C., 10% CO2 • aspirate medium • 50 uL add calcium dye 1×HBSS/HEPES buffer • incubate 1 h at 37° C. (“loading”) • equilibrate 10 min at RT • 5 uL add compounds in HEPES buffer • shake 10 sec. @ 1000 rpm • incubate 15 min at RT • 20 uL add LPA (in the FLIPR Tetra) in KREBS-Puffer/BSA & measurement
The cells are seeded in DMEM buffer (DMEM, 10% FCS, 10 mM HEPES, 1% Pen/Strep).
Dye loading is done in HBSS/HEPES buffer (100 mL 10×HBSS+20 mL 1M HEPES+880 mL water, pH 7.4)
The LPA is added in Krebs/BSA buffer (120 mM NaCl, 5 mM KCl, 0.62 mM MgSO4, 1.8 mM CaCl2, 10 mM HEPES, 6 mM D(+)-Glucose, 0.2% BSA, pH 7.4).
The compounds are pre-diluted in HEPES buffer (20 mM, pH 7.4), whereby the final DMSO content in the assay is kept at 1%. The compounds are pre-diluted in order to generate dose response series on the microplates. The dose response series consist of 10 concentrations for each compound from 30 uM final to 1 nM final. From all compound wells the resulting signals are referred to control wells (located on each plate besides the compound wells) in terms of % activity.
[formula] From these % activity values—along with the corresponding compound concentrations—IC50 values are fitted for each compound using standard fitting programs such as Graphpad Prism. Here the method “log(inhibitor) vs. response—Variable slope” is used. Reader Settings (FLIPR Tetra) • ExcWLength:470—495 • Em.Wlength: 515—575 • Gain: 50 • Exp. Time: 0,4 • Exc.Intensity: 80 • READ with TF • First read interval: 1,00 s • Number of first reads: 240 • Reads before dispense: 10 • Second read interval: 1,00 s • Number of second reads: 0 • Save Images No

Chain of LPA2 receptor (Q9HBW0 whole entry): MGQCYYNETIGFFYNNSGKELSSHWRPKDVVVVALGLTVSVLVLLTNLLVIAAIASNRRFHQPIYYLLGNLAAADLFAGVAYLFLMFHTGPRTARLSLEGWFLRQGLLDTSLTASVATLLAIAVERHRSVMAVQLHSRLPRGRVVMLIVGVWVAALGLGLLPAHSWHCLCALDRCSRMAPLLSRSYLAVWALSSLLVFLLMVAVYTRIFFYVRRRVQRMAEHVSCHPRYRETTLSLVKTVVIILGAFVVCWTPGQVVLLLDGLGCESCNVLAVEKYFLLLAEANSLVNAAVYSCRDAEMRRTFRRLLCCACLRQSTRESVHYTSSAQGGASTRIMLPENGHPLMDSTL

SMILES | IC50
O=C1CC(O)(C(F)(F)F)c2c(Cc3ccccc3)n[nH]c2N1 (stereo not shown) [Compound 28, 3-Benzyl-4-hydroxy-4-trifluoromethyl-1,4,5,7-tetrahydro-pyrazolo[3,4-b]pyridin-6-one] | > 10000 nM
O=C1Nc2[nH]nc(-c3ccccc3)c2C(O)(C(F)(F)F)C1CCO (stereo not shown) [Compound 26, 4-Hydroxy-5-(2-hydroxy-ethyl)-3-phenyl-4-trifluoromethyl-1,4,5,7-tetrahydro-pyrazolo[3,4-b]pyridin-6-one] | > 10000 nM
O=C1CC(O)(C(F)(F)F)c2c(-c3ccco3)n[nH]c2N1 (stereo not shown) [Compound 30, 3-Furan-2-yl-4-hydroxy-4-trifluoromethyl-1,4,5,7-tetrahydro-pyrazolo[3,4-b]pyridin-6-one] | > 10000 nM
Cn1nc(-c2ccc(Cl)cc2)c2c1NC(=O)CC2(O)C(F)(F)F (stereo not shown) [Compound 18, 3(4-Chloro-phenyl)-4-hydroxy-1-methyl-4-trifluoromethyl-1,4,5,7-tetrahydro-pyrazolo[3,4-b]pyridin-6-one] | > 10000 nM
O=C1CC(O)(C(F)(F)F)c2c(-c3cccs3)n[nH]c2N1 (stereo not shown) [Compound 8, 4-Hydroxy-3-thiophen-2-yl-4-trifluoromethyl-1,4,5,7-tetrahydro-pyrazolo[3,4-b]pyridin-6-one] | < 1000 nM
Cn1nc(-c2cccs2)c2c1NC(=O)CC2(O)C(F)(F)F (stereo not shown) [Compound 7, 4-Hydroxy-1-methyl-3-thiophen-2-yl-4-trifluoromethyl-1,4,5,7-tetrahydro-pyrazolo[3,4-b]pyridin-6-one] | > 10000 nM
CCN1C(=O)CC(O)(C(F)(F)F)c2c(-c3ccccc3)n[nH]c21 (stereo not shown) [Compound 34, 7-Ethyl-4-hydroxy-3-phenyl-4-trifluoromethyl-1,4,5,7-tetrahydro-pyrazolo[3,4-b]pyridin-6-one] | > 10000 nM
O=C1CC(O)(C(F)(F)F)c2c(-c3ccccc3)nn(-c3ccccc3)c2N1 (stereo not shown) [Compound 19, 4-Hydroxy-1,3-diphenyl-4-trifluoromethyl-1,4,5,7-tetrahydro-pyrazolo[3,4-b]pyridin-6-one] | > 10000 nM
COc1ccc(-c2n[nH]c3c2C(O)(C(F)(F)F)CC(=O)N3)cc1OC (stereo not shown) [Compound 31, 3-(3,4-Dimethoxy-phenyl)-4-hydroxy-4-trifluoromethyl-1,4,5,7-tetrahydro-pyrazolo[3,4-b]pyridin-6-one] | < 1000 nM
CCC1C(=O)Nc2[nH]nc(-c3ccccc3)c2C1(O)C(F)(F)F (stereo not shown) [Compound 25, 4-Hydroxy-5-ethyl-3-phenyl-4-trifluoromethyl-1,4,5,7-tetrahydro-pyrazolo[3,4-b]pyridin-6-one] | > 10000 nM
CC1C(=O)Nc2[nH]nc(-c3ccccc3)c2C1(O)C(F)(F)F (stereo not shown) [Compound 24, 4-Hydroxy-5-methyl-3-phenyl-4-trifluoromethyl-1,4,5,7-tetrahydro-pyrazolo[3,4-b]pyridin-6-one] | 1000 to 10000 nM
COC1C(=O)Nc2[nH]nc(-c3ccccc3)c2C1(O)C(F)(F)F (stereo not shown) [Compound 27, 4-Hydroxy-5-methoxy-3-phenyl-4-trifluoromethyl-1,4,5,7-tetrahydro-pyrazolo[3,4-b]pyridin-6-one] | > 10000 nM
COc1cc(OC)cc(-c2n[nH]c3c2C(O)(C(F)(F)F)CC(=O)N3)c1 (stereo not shown) [Compound 9, 3-(3,5-Dimethoxy-phenyl)-4-hydroxy-4-trifluoromethyl-1,4,5,7-tetrahydro-pyrazolo[3,4-b]pyridin-6-one] | < 1000 nM
Cc1c(-c2n[nH]c3c2C(O)(C(F)(F)F)CC(=O)N3)cnn1C (stereo not shown) [Compound 33, 3-(1,5-Dimethyl-1H-pyrazol-4-yl)-4-hydroxy-4-trifluoromethyl-1,4,5,7-tetrahydro-pyrazolo[3,4-b]pyridin-6-one] | 1000 to 10000 nM
O=C1CC(O)(C(F)(F)F)c2c(C3CC3)n[nH]c2N1 (stereo not shown) [Compound 16, 3-Cyclopropyl-4-hydroxy-4-trifluoromethyl-1,4,5,7-tetrahydro-pyrazolo[3,4-b]pyridin-6-one] | > 10000 nM

The next lines start with the values.

IC50 | SMILES
> 10000 nM | O=C1C[C@](O)(C(F)(F)F)c2c(-c3ccccc3)n[nH]c2N1 [Compound 11, (+)-4-Hydroxy-3-phenyl-4-trifluoromethyl-1,4,5,7-tetrahydro-pyrazolo[3,4-b]pyridin-6-one]
< 1000 nM | Cc1ccc(-c2n[nH]c3c2C(O)(C(F)(F)F)CC(=O)N3)cc1 (stereo not shown) [Compound 6, 4-Hydroxy-3-p-tolyl-4-trifluoromethyl-1,4,5,7-tetrahydro-pyrazolo[3,4-b]pyridin-6-one]
< 1000 nM | O=C1CC(O)(C(F)(F)F)c2c(-c3cccc(Br)c3)n[nH]c2N1 (stereo not shown) [Compound 13, 3-(3-Bromo-phenyl)-4-hydroxy-4-trifluoromethyl-1,4,5,7-tetrahydro-pyrazolo[3,4-b]pyridin-6-one]
< 1000 nM | O=C1CC(O)(C(F)(F)F)c2c(-c3ccccc3)n[nH]c2N1 (stereo not shown) [Compound 2, 4-Hydroxy-3-phenyl-4-trifluoromethyl-1,4,5,7-tetrahydro-pyrazolo[3,4-b]pyridin-6-one]
> 10000 nM | O=C1CC(O)(C(F)(F)F)c2c(-c3ccc(Br)cc3)n[nH]c2N1 (stereo not shown) [Compound 12, 3-(4-Bromo-phenyl)-4-hydroxy-4-trifluoromethyl-1,4,5,7-tetrahydro-pyrazolo[3,4-b]pyridin-6-one]
< 1000 nM | O=C1CC(O)(C(F)(F)F)c2c(-c3ccncc3)n[nH]c2N1 (stereo not shown) [Compound 22, 4-Hydroxy-3-pyridin-4-yl-4-trifluoromethyl-1,4,5,7-tetrahydro-pyrazolo[3,4-b]pyridin-6-one]
< 1000 nM | O=C1CC(O)(C(F)(F)F)c2c(-c3cccc(C(F)(F)F)c3)n[nH]c2N1 (stereo not shown) [Compound 15, 4-Hydroxy-4-trifluoromethyl-3-(3-trifluoromethyl-phenyl)-1,4,5,7-tetrahydro-pyrazolo[3,4-b]pyridin-6-one]
< 1000 nM | O=C1CC(O)(C(F)(F)F)c2c(-c3cccc(F)c3)n[nH]c2N1 (stereo not shown) [Compound 1, 3-(3-Fluoro-phenyl)-4-hydroxy-4-trifluoromethyl-1,4,5,7-tetrahydro-pyrazolo[3,4-b]pyridin-6-one]
< 1000 nM | O=C1CC(O)(C(F)(F)F)c2c(-c3cccc(Cl)c3)n[nH]c2N1 (stereo not shown) [Compound 14, 3-(3-Chloro-phenyl)-4-hydroxy-4-trifluoromethyl-1,4,5,7-tetrahydro-pyrazolo[3,4-b]pyridin-6-one]
< 1000 nM | O=C1CC(O)(C(F)(F)F)c2c(-c3ccc(F)cc3)n[nH]c2N1 (stereo not shown) [Compound 17, 3-(4-Fluoro-phenyl)-4-hydroxy-4-trifluoromethyl-1,4,5,7-tetrahydro-pyrazolo[3,4-b]pyridin-6-one]
> 10000 nM | O=C1C[C@](O)(C(F)(F)F)c2c(-c3cccc(F)c3)n[nH]c2N1 [Compound 21, (+)-3-(3-Fluoro-phenyl)-4-hydroxy-4-trifluoromethyl-1,4,5,7-tetrahydro-pyrazolo[3,4-b]pyridin-6-one]
< 1000 nM | O=C1C[C@@](O)(C(F)(F)F)c2c(-c3ccccc3)n[nH]c2N1 [Compound 10, (−)-4-Hydroxy-3-phenyl-4-trifluoromethyl-1,4,5,7-tetrahydro-pyrazolo[3,4-b]pyridin-6-one]
1000 to 10000 nM | COc1cccc(-c2n[nH]c3c2C(O)(C(F)(F)F)CC(=O)N3)c1 (stereo not shown) [Compound 32, 4-Hydroxy-3-(3-methoxy-phenyl)-4-trifluoromethyl-1,4,5,7-tetrahydro-pyrazolo[3,4-b]pyridin-6-one]
< 1000 nM | COc1ccc(-c2n[nH]c3c2C(O)(C(F)(F)F)CC(=O)N3)cc1 (stereo not shown) [Compound 3, 4-Hydroxy-3-(4-methoxy-phenyl)-4-trifluoromethyl-1,4,5,7-tetrahydro-pyrazolo[3,4-b]pyridin-6-one]
1000 to 10000 nM | O=C1CC(O)(C(F)(F)F)c2c(-c3ccc(Cl)cc3)n[nH]c2N1 (stereo not shown) [Compound 5, 3-(4-Chloro-phenyl)-4-hydroxy-4-trifluoromethyl-1,4,5,7-tetrahydro-pyrazolo[3,4-b]pyridin-6-one]
< 1000 nM | O=C1C[C@@](O)(C(F)(F)F)c2c(-c3cccc(F)c3)n[nH]c2N1 [Compound 20, (−)-3-(3-Fluoro-phenyl)-4-hydroxy-4-trifluoromethyl-1,4,5,7-tetrahydro-pyrazolo[3,4-b]pyridin-6-one]

From patent US9067938B2, “Pyrazolopyridinone derivatives as LPA receptor antagonists” (Merck Patent GmbH, priority 2010, dated 2015)
